“And” between values parts separate entries of the source, which are not always exact repeats. Equal values may be shown once. Marks after values point to notes of the source that are not given here.
Key:
[1] = Integrated population pharmacokinetic model
[2] = cited from earlier work
[3] = cited from earlier work; remark: listed apart in the source
[4] = doses of 15 mg or 20 mg in the absence of food; cited from earlier work
[5] = final population PK model, comedication factor on CL/F

For `O=C(NC[C@H]1CN(c2ccc(N3CCOCC3=O)cc2)C(=O)O1)c1ccc(Cl)s1` [rivaroxaban], the “θCL/F, VTE >72 h (study-specific factor on CL/F)” value ([1]; VTE prevention, >72 hours, relative to VTE treatment (factor = 1)) was 1.29 Proportion, the “θCL/F, VTE ≤72 h (study-specific factor on CL/F)” value ([1]; VTE prevention, ≤72 hours, relative to VTE treatment (factor = 1)) was 1.04 Proportion and the “θCL/F, ACS (study-specific factor on CL/F)” value ([1]; acute coronary syndrome population, relative to VTE treatment (factor = 1)) was 1.14 Proportion. The “θCL/F, AF (study-specific factor on CL/F)” value ([1]; atrial fibrillation population, relative to VTE treatment (factor = 1)) was 0.85 Proportion and 0.849 Proportion, the “D50 (dose parameter of relative bioavailability function)” value ([1]; final population PK model) was 14.4 mg and the “ω2 CL/F (interindividual variability)” value ([1]; final population PK model) was 0.167 (10.3) ^d Variance. For the same molecule, the “ω2 CL/F, V/F” value ([1]; final population PK model) was 0.0674 Covariance, the “ω2 ka (interindividual variability)” value ([1]; final population PK model) was 0.628 (32.8) ^d Variance and the “ω^2 V/F (interindividual variability)” value ([1]; final population PK model) was 0.0391 (25.7) ^d Variance. The “ka (first-order absorption rate constant)” value ([1]; final population PK model (run 12), 4,918 patients, oral rivaroxaban) was 0.821 h⁻¹, the “θCL/F, CYP3A4 inducer” value [1, 5] was 1.30 Proportion and the “θCL/F, Medium CYP3A4 inhibitor” value [1, 5] was 0.863 Proportion. For the same molecule, the “θCL/F, Strong CYP3A4 inhibitor” value [1, 5] was 0.978 Proportion, the “θCL/F, Weak CYP3A4 inhibitor” value [1, 5] was 0.939 Proportion and the “θCL/F, PGP” value ([1]; final population PK model, comedication with P-gp inhibitor, factor on CL/F) was 0.966 Proportion. For the same molecule, the “θCL/F, CrCL” value ([1]; final population PK model, effect of Tietz-truncated CrCL on CL/F) was 0.406 Power, the “θV/F, Age” value ([1]; final population PK model, effect of age on V/F) was −0.189 Power and the “θV/F, Sex” value ([1]; final population PK model, effect of gender (female) on V/F) was 0.889 Proportion. For the same molecule, the “θCL/F, weight” value ([1]; final population PK model, effect of weight on CL/F) was −0.278 Power, the “θV/F, weight” value ([1]; final population PK model, effect of weight on V/F) was 0.216 Power and the “Fmax (relative bioavailability as a function of dose)” value ([1]; final population PK model, fixed, relative bioavailability fixed at 1.0 for a 10 mg dose) was 1.25 Proportion. For the same molecule, the “σ2 prop (residual variability)” value ([1]; final population PK model, proportional residual error) was 0.203 (10.3) ^d Variance, the “Fmin (relative bioavailability as a function of dose)” value ([1]; final population PK model, relative to 10 mg dose (F = 1)) was 0.590 Proportion and the “AUC increase in the presence of strong CYP3A4 inhibitors” value ([1]; integrated population PK model) was 1.02 fold. For the same molecule, the “fraction of the dose eliminated renally as unchanged drug” value [2] was “Approximately one‐third”, the “Biopharmaceutics Classification System class” value [3] was “class 2” and the “permeability (BCS classification)” value [3] was “high permeability”. The “solubility (BCS classification)” value [3] was “low solubility” and the “bioavailability and absorption rate vs dose” value [4] was “less than dose proportional”.

— PMC5980303 (CPT: Pharmacometrics & Systems Pharmacology, 2018)
